This is an account of results in patent US20180353445A1, “METHODS AND COMPOSITIONS RELATING TO PROTEASOME INHIBITOR RESISTANCE” (Whitehead Institute for Biomedical Research, priority 2017, published 2018).

For one assay, the target named is 20S proteasome (Homo sapiens, UniProt P28072+P28074). Briefly: Native gel analysis of proteasomal complexes, Suc-LLVY-AMC substrate overlay. The assay is classed as biochemical. The conditions noted are these: control cells, 12 nM, 24 hours. An excerpt:
FIGS. 2A-2F: Reducing expression of 19S subunits increases the levels of active 20S proteasomes and protects cancer cells from proteasome (FIG. 2A) HepG2 cells were infected with 80 shRNAs targeting 20 different subunits of the proteasome and 10 control shRNAs. Infected cells were then exposed to […] bortezomib and cell number was examined 4 days later. The plot represents the average (+/−SEM) of four different hairpins targeting the indicated proteasome subunits and their relative cell number following bortezomib treatment. 19S subunits are depicted with orange bars, the control with a blue bar and 20S subunits with green bars. […] (FIG. 2C) The relative cell number of cells harboring a control shLacZ or each of 4 individual shRNAs targeting shPSMD2 was analyzed 4 days after addition of the indicated concentrations of bortezomib. (FIG. 2D) HepG2 cells stably expressing four different shRNAs targeting the PSMD2 subunit and a control shRNA (lacZ) were analyzed by western blot for the indicated proteins 24 hours with or without bortezomib treatment. […] Proteasome complex levels were detected by immunoblot analysis and 20S proteasome activity by measuring the hydrolysis of Suc-LLVY-AMC by substrate overlay assays. * p<0.05 **p<0.01. […]

The test system of another assay is K562 cells. Briefly: K562 viability and cell proliferation (relative cell number count), incl. FDX1 KO cells. The assay is classed as cell-based, human. Conditions: FDX1-null cell line versus non-targeting control sgRNA. The source says:
Despite its use in clinical trials on a limited number of malignancies, the elesclomol mechanism of action remains unclear. We therefore undertook a genetic approach to identify its direct target and to define cellular pathways that modulate the sensitivity of cancer cells to elesclomol-induced toxicity. […] We measured the relative abundance of each sgRNA in the compound-treated K562 cells at the beginning and end of the culture period. For each gene, we calculated its score as the mean log2 fold-change in abundance of all sgRNAs targeting the gene. […]
Viability and cell proliferation assays—Relative cell number count protocol—The viability of K562 cells was conducted by seeding cells at 250,000 cells/mL in 6-well plates of RPMI. […] Viable cell numbers were counted using countess (Invitrogen) every 2-3 days and cells were reseeded at 250,000 cells/mL in 6-well plates of RPMI to continue growth.
The viability of FDX1 KO K562 cells and AAVS1 KO and WT controls was examined by plating 100,000 cells/mL in 6-well cells in RPMI media (without glucose containing dialyzed serum) with either 10 mM glucose or 10 mM galactose. Viable cell numbers were counted every day using countess (Invitrogen).

Turning to `CC(C)C[C@H](NC(=O)[C@H](Cc1ccccc1)NC(=O)c1cnccn1)B(O)O` [bortezomib], the 20S proteasome function entry at 20S proteasome is reported as “nearly complete inactivation”.

Take `CN(NC(=O)CC(=O)NN(C)C(=S)c1ccccc1)C(=S)c1ccccc1` [elesclomol]: the “effect of loss of FDX1 protein on sensitivity” value in the assay with K562 cells is “confers relative resistance”.
